Test results: patent US20230089247A1, “NOVEL COMPOUNDS SUITABLE FOR THE TREATMENT OF DYSLIPIDEMIA” (ZYDUS LIFESCIENCES LIMITED, priority 2019, published 2023)

Target: PCSK9 (Homo sapiens, UniProt Q8NBP7)
Test: BODIPY-LDL uptake assay in HepG2 cells
Format: cell-based
Details: 5 μg/ml PCSK9, BODIPY-LDL
Experimental: BODIPY-LDL Uptake Assay in HepG2 Cells.
An established assay for PCSK9 inhibition features uptake of fluorescently labeled LDL nanoparticles (BODIPY-LDL) by hepatocytes and uptake of the BODIPY-containing particles is maximized in the absence of PCSK9.
In the LDL uptake assay, HepG2 cells were seeded at a density of 6×10^4 cells/well in a 96-well plate. After 24 h, the test compounds at various concentrations were pre-incubated with 5 μg/ml PCSK9 in 0.2% DMSO for 60 min prior to the addition on to the cells. After 16 h the medium was removed and 1 μg/ml BODIPY-LDL (Invitrogen) in serum free media was added and incubated for 5 h. Then the cells were washed twice with 0.25% BSA in PBS. Then the fluorescence of the cells in PBS was measured using TECAN multimode reader (Excitation: 485 nm and Emission: 520 nm). The readings were taken in triplicate and the final values were normalized with the protein concentration from respective wells. The wells without test compound containing external PCSK9 is considered as zero uptake and the one without PCSK9 was considered as 100% uptake. The percentage increase in LDL uptake for the test compounds were calculated using these values.

Chain of PCSK9 (Q8NBP7 153-692): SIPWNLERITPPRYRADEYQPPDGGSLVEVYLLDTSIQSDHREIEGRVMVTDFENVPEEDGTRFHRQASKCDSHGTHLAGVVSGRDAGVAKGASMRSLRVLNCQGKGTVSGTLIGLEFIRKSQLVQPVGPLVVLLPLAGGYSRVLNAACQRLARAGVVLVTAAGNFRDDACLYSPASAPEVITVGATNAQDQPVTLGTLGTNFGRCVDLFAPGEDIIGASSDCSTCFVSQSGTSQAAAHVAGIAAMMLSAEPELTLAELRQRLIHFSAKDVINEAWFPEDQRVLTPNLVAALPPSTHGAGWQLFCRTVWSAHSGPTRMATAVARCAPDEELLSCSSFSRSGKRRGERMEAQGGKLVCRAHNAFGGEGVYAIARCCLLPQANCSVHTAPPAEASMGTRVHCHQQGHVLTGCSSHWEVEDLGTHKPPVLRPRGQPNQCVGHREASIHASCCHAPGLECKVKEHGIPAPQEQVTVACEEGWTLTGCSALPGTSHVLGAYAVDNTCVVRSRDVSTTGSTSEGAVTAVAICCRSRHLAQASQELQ

SMILES	% increase in LDL Uptake (1 μM test compound) [%]	% increase in LDL Uptake (10 μM test compound) [%]	% increase in LDL Uptake (30 μM test compound) [%]
[2H]C([2H])([2H])OC1(c2cccc(C(=O)N3CCC(c4ccc(C(F)F)cc4)CC3)c2)COC1 [Example 59, (4-(4-(difluoromethyl)phenyl)piperidin-1-yl)(3-(3-(methoxy-d3)oxetan-3-yl)phenyl) methanone]	0	0	37
O=C(c1ccc(C2(O)CS(=O)(=O)C2)cc1)N1CCC(c2ccc(C(F)(F)F)cc2)CC1 [Example 62, (4-(3-hydroxy-1,1-dioxidothietan-3-yl)phenyl)(4-(4-(trifluoromethyl)phenyl)piperidin-1-yl)methanone]	18	10	17
O=C(c1ccc(C2(O)COC2)cc1)N1CCC(c2ccc(O)cc2)CC1 [Example 63, (4-(3-hydroxyoxetan-3-yl)phenyl)(4-(4-hydroxyphenyl)piperidin-1-yl)methanone]	12	18	0
O=C(c1ccc(C2(O)COC2)cc1)N1CCC(c2ccccc2)CC1 [Example 64, (4-(3-hydroxyoxetan-3-yl)phenyl)(4-phenylpiperidin-1-yl) methanone]	0	13	6
COC1(c2cccc(C(=O)N3CCC(c4ccc(C(F)F)cc4)CC3)c2)COC1 [Example 65, (4-(4-(difluoromethyl)phenyl)piperidin-1-yl)(3-(3-methoxyoxetan-3-yl)phenyl)methanone]	0	9	66
COC1(c2ccc(C(=O)N3CCC(c4ccc(C(F)F)cc4)CC3)cc2)COC1 [Example 68, (4-(4-(difluoromethyl)phenyl)piperidin-1-yl)(4-(3-methoxyoxetan-3-yl)phenyl)methanone]	0	2	51
O=C(c1ccc(C2(O)COC2)cc1)N1CCC(c2ccc(C(F)F)cc2)CC1 [Example 69, (4-(4-(difluoromethyl)phenyl)piperidin-1-yl)(4-(3-hydroxyoxetan-3-yl)phenyl)methanone]	0	0	76
CC#CCOC1(c2ccc(C(=O)N3CCC(c4ccc(C(F)(F)F)cc4)CC3)cc2)COC1 [Example 70, (4-(3-(but-2-yn-1-yloxy)oxetan-3-yl)phenyl)(4-(4-(trifluoromethyl)phenyl)piperidin-1-yl)methanone]	0	26	14
OC1(c2cc(N3CCOCC3)cc(N3CCC(c4ccc(C(F)(F)F)cc4)CC3)c2)COC1 [Example 84, 3-(3-morpholino-5-(4-(4-(trifluoromethyl)phenyl)piperidin-1-yl)phenyl) oxetan-3-ol]	6	13	17
COC1(c2cccc(C(=O)N3CC4=C(C3)CN(c3ccc(C(F)(F)F)cc3)C4)c2)COC1 [Example 97, (3-(3-methoxyoxetan-3-yl)phenyl)(5-(4-(trifluoromethyl)phenyl)-3,4,5,6-tetrahydropyrrolo[3,4-c]pyrrol-2(1H)-yl)methanone]	0	0	24
O=C(c1cccc(C2(O)COC2)c1)N1CCC2(CC1)CCN(c1ccc(C(F)(F)F)cc1)CC2 [Example 100, (3-(3-hydroxyoxetan-3-yl)phenyl)(9-(4-(trifluoromethyl)phenyl)-3,9-diazaspiro[5.5]undecan-3-yl)methanone]	29	0	0

Other lines, results leading:

% increase in LDL Uptake (1 μM test compound) [%]	% increase in LDL Uptake (10 μM test compound) [%]	% increase in LDL Uptake (30 μM test compound) [%]	SMILES
82	320	287	O=C(c1cccc(C2(O)COC2)c1)N1CC2CN(c3ccc(C(F)(F)F)cc3)CC2C1 (stereo not drawn) [Example 55, (3-(3-hydroxyoxetan-3-yl)phenyl)(5-(4-(trifluoromethyl)phenyl)hexahydropyrrolo[3,4-c]pyrrol-2(1H)-yl)methanone]
50	7	0	COC1(c2ccc(NC(=O)C3CCN(c4ccc(C(F)(F)F)cc4)CC3)cc2)COC1 [Example 60, N-(4-(3-methoxyoxetan-3-yl)phenyl)-1-(4-(trifluoromethyl)phenyl) piperidine-4-carboxamide]
13	32	37	O=C(c1ccc(C2(O)CS(=O)(=O)C2)cc1)N1CC2CN(c3ccc(C(F)(F)F)cc3)CC2C1 (stereo not drawn) [Example 61, (4-(3-hydroxy-1,1-dioxidothietan-3-yl)phenyl)(5-(4-(trifluoromethyl)phenyl)hexahydropyrrolo[3,4-c]pyrrol-2(1H)-yl)methanone]
26	27	11	COc1cc(C2CN(c3ccc(C(F)(F)F)cc3)CCN2C(=O)c2ccc(C3(O)COC3)cc2)ccn1 (stereo not drawn) [Example 67, (4-(3-hydroxyoxetan-3-yl)phenyl)(2-(2-methoxypyridin-4-yl)-4-(4-(trifluoromethyl)phenyl)piperazin-1-yl)methanone]
0	8	0	COC1(c2ccc(C3(O)CCN(c4ccc(C(F)(F)F)cc4)CC3)cc2)COC1 [Example 73, 4-(4-(3-methoxyoxetan-3-yl)phenyl)-1-(4-(trifluoromethyl)phenyl) piperidin-4-ol]
34	42	100	COC1(c2ccc(NC(=O)N3CC4CN(c5ccc(C(F)(F)F)cc5)CC4C3)cc2)COC1 (stereo not drawn) [Example 74, N-(4-(3-methoxyoxetan-3-yl)phenyl)-5-(4-(trifluoromethyl)phenyl) hexahydropyrrolo[3,4-c]pyrrole-2(1H)-carboxamide]
20	38	27	O=C(Nc1ccc(C2(O)COC2)cc1)N1CC2CN(c3ccc(C(F)(F)F)cc3)CC2C1 (stereo not drawn) [Example 75, N-(4-(3-hydroxyoxetan-3-yl)phenyl)-5-(4-(trifluoromethyl)phenyl) hexahydropyrrolo[3,4-c]pyrrole-2(1H)-carboxamide]
0	13	37	O=C(O)c1cc(C2(O)COC2)ccc1N1CCC(c2ccc(C(F)(F)F)cc2)CC1 [Example 77, 5-(3-hydroxyoxetan-3-yl)-2-(4-(4-(trifluoromethyl)phenyl)piperidin-1-yl)benzoic acid]
0	5	159	O=C(c1ccc(C2(O)COC2)cc1)N1Cc2cn(-c3ccc(C(F)(F)F)cc3)nc2C1 [Example 89, (4-(3-hydroxyoxetan-3-yl)phenyl)(2-(4-(trifluoromethyl)phenyl)-2,6-dihydropyrrolo[3,4-c]pyrazol-5(4H)-yl)methanone]
−2	−8	64	COC1(c2ccc(C(=O)N3CC4CC(OC)(c5ccc(C(F)(F)F)cc5)CC4C3)cc2)COC1 (stereo not drawn) [Example 92, (5-methoxy-5-(4-(trifluoromethyl)phenyl)hexahydrocyclopenta[c]pyrrol-2(1H)-yl)(4-(3-methoxyoxetan-3-yl)phenyl)methanone]
0	90	144	O=C(c1ccc(C2(O)COC2)cc1)N1Cc2cn(-c3ccc(C(F)(F)F)cc3)cc2C1 [Example 93, (4-(3-hydroxyoxetan-3-yl)phenyl)(5-(4-(trifluoromethyl)phenyl)-3,5-dihydropyrrolo[3,4-c]pyrrol-2(1H)-yl)methanone]
0	28	75	O=C(c1cccc(C2(O)COC2)c1)N1CC2=C(C1)CN(c1ccc(C(F)(F)F)cc1)C2 [Example 96, (3-(3-hydroxyoxetan-3-yl)phenyl)(5-(4-(trifluoromethyl)phenyl)-3,4,5,6-tetrahydropyrrolo[3,4-c]pyrrol-2(1H)-yl)methanone]
0	124	3	O=S(=O)(c1ccc(C2(O)COC2)cc1)N1CC2CN(c3ccc(C(F)(F)F)cc3)CC2C1 (stereo not drawn) [Example 98, 3-(4-((5-(4-(trifluoromethyl)phenyl)hexahydropyrrolo[3,4-c]pyrrol-2(1H)-yl)sulfonyl)phenyl)oxetan-3-ol]
50	0	0	O=C(c1ccc(C2(O)COC2)cc1)N1CCC2(CC1)CCN(c1ccc(C(F)(F)F)cc1)CC2 [Example 99, (4-(3-hydroxyoxetan-3-yl)phenyl)(9-(4-(trifluoromethyl)phenyl)-3,9-diazaspiro[5.5]undecan-3-yl)methanone]
